Experimental data as given in patent publication US20200069691A1, “HETEROCYCLIC COMPOUNDS AS HIV PROTEASE INHIBITORS” (Merck Sharp & Dohme Corp., priority 2016, published 2020).

Target: T1, wild-type HIV-1 protease (Human immunodeficiency virus type 1 group M subtype B, UniProt P04585)
T1 construct: Escherichia coli expressed wild-type HIV-1 protease protein
Experiment: Assay for Inhibition of Microbial Expressed HIV Protease (peptide substrate cleavage, LC-MS/MS readout)
Assay type: biochemical
Conditions: E. coli expressed wild-type HIV-1 protease, mean of at least two independent experiments, read-out: HIV Pr Enzyme HIV1 PR IC50
Procedure, shortened: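 Cleavage of Val-Ser-Gln-Asn-(β-naphthyl)Ala-Pro-Ile-Val (400 μM) by recombinant HIV-1 protease ([…]) ran 1 h at 30 °C after a 30 min room-temperature inhibitor preincubation in 50 mM sodium acetate pH 5.5. Product peak areas by LC-MS/MS gave inhibition; values average at least two independent runs.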

`CC(C)(C)NC(=O)c1nnc2n1CCN(C(=O)c1cccc(CN3C(=N)NC(c4ccccc4)(c4ccccc4)C3=O)c1)C2` [Compound 361, N-tert-butyl-7-({3-[(2-imino-5-oxo-4,4-diphenylimidazolidin-1-yl)methyl]phenyl}carbonyl)-5,6,7,8-tetrahydro[1,2,4]triazolo[4,3-a]pyrazine-3-carboxamide] gave an IC50 of 96.1 nM.

For `N=C1NC(c2ccccc2)(c2ccccc2)C(=O)N1Cc1ccc(Cl)c(C(=O)N2Cc3nccnc3C2)c1` [Compound 362, 3-[4-chloro-3-(5,7-dihydro-6H-pyrrolo[3,4-b]pyrazin-6-ylcarbonyl)benzyl]-2-imino-5,5-diphenylimidazolidin-4-one], the IC50 was 1.34 nM.

`N#Cc1ncc2c(n1)CN(C(=O)c1cc(CN3C(=N)NC(c4ccc(F)cc4)(c4ccc(F)cc4)C3=O)ccc1Cl)C2` [Compound 363, 6-[(5-{[4,4-bis(4-fluorophenyl)-2-imino-5-oxoimidazolidin-1-yl]methyl}-2-chlorophenyl)carbonyl]-6,7-dihydro-5H-pyrrolo[3,4-d]pyrimidine-2-carbonitrile] showed an IC50 of 1.66 nM.

`CC(C)CC1(c2ccccc2)NC(=N)N(Cc2ccc(Cl)c(C(=O)N3Cc4cnc(C#N)nc4C3)c2)C1=O` (centres unmarked) [Compound 364, 6-[(2-chloro-5-{[2-imino-4-(2-methylpropyl)-5-oxo-4-phenylimidazolidin-1-yl]methyl}phenyl)carbonyl]-6,7-dihydro-5H-pyrrolo[3,4-d]pyrimidine-2-carbonitrile] gave an IC50 of 4.17 nM.

With `CC(C)CC1(c2ccccc2)NC(=N)N(Cc2ccc(Cl)c(C(=O)N3Cc4nccnc4C3)c2)C1=O` (centres unmarked) [Compound 365, 3-[4-chloro-3-(5,7-dihydro-6H-pyrrolo[3,4-b]pyrazin-6-ylcarbonyl)benzyl]-2-imino-5-(2-methylpropyl)-5-phenylimidazolidin-4-one] the IC50 was 4.87 nM.

Compound `CC(C)CC1(c2ccccc2)NC(=N)N(Cc2ccc(Cl)c(C(=O)N3Cc4cccnc4C3)c2)C1=O` (centres unmarked) [Compound 366, 3-[4-chloro-3-(5,7-dihydro-6H-pyrrolo[3,4-b]pyridin-6-ylcarbonyl)benzyl]-2-imino-5-(2-methylpropyl)-5-phenylimidazolidin-4-one] has an IC50 of 5.08 nM.

`N#Cc1ncc2c(n1)CN(C(=O)c1cc(CN3C(=N)NC(c4ccccc4)(c4ccccc4)C3=O)ccc1Cl)C2` [Compound 367, 6-({2-chloro-5-[(2-imino-5-oxo-4,4-diphenylimidazolidin-1-yl)methyl]phenyl}carbonyl)-6,7-dihydro-5H-pyrrolo[3,4-d]pyrimidine-2-carbonitrile] showed an IC50 of 5.13 nM.

Compound `N=C1NC(c2ccccc2)(c2ccccc2)C(=O)N1Cc1ccc(Cl)c(C(=O)N2Cc3cccnc3C2)c1` [Compound 368, 3-[4-chloro-3-(5,7-dihydro-6H-pyrrolo[3,4-b]pyridin-6-ylcarbonyl)benzyl]-2-imino-5,5-diphenylimidazolidin-4-one] has an IC50 of 5.42 nM.

`COc1ccc(CN2C(=N)NC(c3ccc(Cl)cc3)(c3ccc(Cl)cc3)C2=O)cc1C(=O)N1Cc2nccnc2C1` [Compound 369, 5,5-bis(4-chlorophenyl)-3-[3-(5,7-dihydro-6H-pyrrolo[3,4-b]pyrazin-6-ylcarbonyl)-4-methoxybenzyl]-2-iminoimidazolidin-4-one] gave an IC50 of 31.4 nM.

In the case of `COC(=O)Nc1ncc2c(n1)CN(C(=O)c1cc(CN3C(=N)NC(c4ccc(F)cc4)(c4ccc(F)cc4)C3=O)ccc1F)C2` [Compound 370, methyl {6-[(5-{[4,4-bis(4-fluorophenyl)-2-imino-5-oxoimidazolidin-1-yl]methyl}-2-fluorophenyl)carbonyl]-6,7-dihydro-5H-pyrrolo[3,4-d]pyrimidin-2-yl}carbamate], the IC50 is reported as 5.81 nM.

`COc1ccc(CN2C(=N)NC(c3ccccc3)(c3ccccc3)C2=O)cc1C(=O)N1Cc2ccccc2C1` [Compound 371, 3-[3-(1,3-dihydro-2H-isoindol-2-ylcarbonyl)-4-methoxybenzyl]-2-imino-5,5-diphenylimidazolidin-4-one] was tested, and the IC50 was 29.5 nM.

With `COc1ccc(CN2C(=N)NC(c3ccccc3)(c3ccccc3)C2=O)cc1C(=O)N1Cc2cccc(F)c2C1` [Compound 372, 3-{3-[(4-fluoro-1,3-dihydro-2H-isoindol-2-yl)carbonyl]-4-methoxybenzyl}-2-imino-5,5-diphenylimidazolidin-4-one] the IC50 was 6.91 nM.

With `CC(C)CC1(c2ccccc2)NC(=N)N(Cc2ccc(Cl)c(C(=O)N3Cc4cncnc4C3)c2)C1=O` (centres unmarked) [Compound 373, 3-[4-chloro-3-(5,7-dihydro-6H-pyrrolo[3,4-d]pyrimidin-6-ylcarbonyl)benzyl]-2-imino-5-(2-methylpropyl)-5-phenylimidazolidin-4-one] the IC50 was 6.93 nM.

Compound `N=C1NC(c2ccccc2)(c2ccccc2)C(=O)N1Cc1ccc(Cl)c(C(=O)N2Cc3cncnc3C2)c1` [Compound 374, 3-[4-chloro-3-(5,7-dihydro-6H-pyrrolo[3,4-d]pyrimidin-6-ylcarbonyl)benzyl]-2-imino-5,5-diphenylimidazolidin-4-one] has an IC50 of 7.02 nM.

With `N=C1NC(c2ccc(F)cc2)(c2ccc(F)cc2)C(=O)N1Cc1ccc(Cl)c(C(=O)N2Cc3ccccc3C2)c1` [Compound 375, 3-[4-chloro-3-(1,3-dihydro-2H-isoindol-2-ylcarbonyl)benzyl]-5,5-bis(4-fluorophenyl)-2-iminoimidazolidin-4-one] the IC50 was 7.56 nM.

`N=C1NC(c2ccc(F)cc2)(c2ccc(F)cc2)C(=O)N1Cc1ccc(Cl)c(C(=O)N2Cc3cncnc3C2)c1` [Compound 376, 3-[4-chloro-3-(5,7-dihydro-6H-pyrrolo[3,4-d]pyrimidin-6-ylcarbonyl)benzyl]-5,5-bis(4-fluorophenyl)-2-iminoimidazolidin-4-one] was tested, and the IC50 was 9.6 nM.

In the case of `N=C1NC(c2ccc(F)cc2)(c2ccc(F)cc2)C(=O)N1Cc1ccc(Cl)c(C(=O)N2Cc3ccc(F)cc3C2)c1` [Compound 377, 3-{4-chloro-3-[(5-fluoro-1,3-dihydro-2H-isoindol-2-yl)carbonyl]benzyl}-5,5-bis(4-fluorophenyl)-2-iminoimidazolidin-4-one], the IC50 is reported as 10 nM.

Work on `CN1CCN(C(=O)c2cc(CN3C(=N)NC(c4ccccc4)(c4ccccc4)C3=O)ccc2Cl)CC1=O` [Compound 378, 4-({2-chloro-5-[(2-imino-5-oxo-4,4-diphenylimidazolidin-1-yl)methyl]phenyl}carbonyl)-1-methylpiperazin-2-one] yielded an IC50 of 10.6 nM.

`N=C1NC(c2ccccc2)(c2ccccc2)C(=O)N1Cc1ccc(F)c(C(=O)N2Cc3nccnc3C2)c1` [Compound 379, 3-[3-(5,7-dihydro-6H-pyrrolo[3,4-b]pyrazin-6-ylcarbonyl)-4-fluorobenzyl]-2-imino-5,5-diphenylimidazolidin-4-one] gave an IC50 of 10.7 nM.

Compound `N=C1NC(c2ccccc2)(c2ccccc2)C(=O)N1Cc1ccc(Cl)c(C(=O)N2CCNC(=O)C2)c1` [Compound 380, 4-({2-chloro-5-[(2-imino-5-oxo-4,4-diphenylimidazolidin-1-yl)methyl]phenyl}carbonyl) piperazin-2-one] has an IC50 of 11.2 nM.

For `COC(=O)N1CCN(C(=O)c2cc(CN3C(=N)NC(c4ccc(F)cc4)(c4ccc(F)cc4)C3=O)ccc2Cl)CC1` [Compound 381, methyl 4-[(5-{[4,4-bis(4-fluorophenyl)-2-imino-5-oxoimidazolidin-1-yl]methyl}-2-chlorophenyl)carbonyl] piperazine-1-carboxylate], the IC50 was 12.4 nM.

`N=C1NC(c2ccc(F)cc2)(c2ccc(F)cc2)C(=O)N1Cc1ccc(F)c(C(=O)N2Cc3nccnc3C2)c1` [Compound 382, 3-[3-(5,7-dihydro-6H-pyrrolo[3,4-b]pyrazin-6-ylcarbonyl)-4-fluorobenzyl]-5,5-bis(4-fluorophenyl)-2-iminoimidazolidin-4-one] gave an IC50 of 13.1 nM.

With `N=C1NC(c2ccccc2)(c2ccccc2)C(=O)N1Cc1ccc(Cl)c(C(=O)N2CCC(n3c(=O)[nH]c4ccccc43)CC2)c1` [Compound 383, 1-[1-({2-chloro-5-[(2-imino-5-oxo-4,4-diphenylimidazolidin-1-yl)methyl]phenyl}carbonyl)piperidin-4-yl]-1,3-dihydro-2H-benzimidazol-2-one] the IC50 was 14.7 nM.

`N#Cc1ncc2c(n1)CN(C(=O)c1cc(CN3C(=N)NC(c4ccccc4)(c4ccccc4)C3=O)ccc1F)C2` [Compound 384, 6-({2-fluoro-5-[(2-imino-5-oxo-4,4-diphenylimidazolidin-1-yl)methyl]phenyl}carbonyl)-6,7-dihydro-5H-pyrrolo[3,4-d]pyrimidine-2-carbonitrile] was tested, and the IC50 was 21.6 nM.

`N=C1NC(c2ccccc2)(c2ccccc2)C(=O)N1Cc1ccc(F)c(C(=O)N2Cc3cncnc3C2)c1` [Compound 385, 3-[3-(5,7-dihydro-6H-pyrrolo[3,4-d]pyrimidin-6-ylcarbonyl)-4-fluorobenzyl]-2-imino-5,5-diphenylimidazolidin-4-one] showed an IC50 of 25.8 nM.

Work on `N=C1NC(c2ccccc2)(c2ccccc2)C(=O)N1Cc1ccc(F)c(C(=O)N2Cc3cccnc3C2)c1` [Compound 386, 3-[3-(5,7-dihydro-6H-pyrrolo[3,4-b]pyridin-6-ylcarbonyl)-4-fluorobenzyl]-2-imino-5,5-diphenylimidazolidin-4-one] yielded an IC50 of 28.2 nM.

In the case of `COc1ccc(CN2C(=N)NC(c3ccccc3)(c3ccccc3)C2=O)cc1C(=O)N1Cc2cncnc2C1` [Compound 387, 3-[3-(5,7-dihydro-6H-pyrrolo[3,4-d]pyrimidin-6-ylcarbonyl)-4-methoxybenzyl]-2-imino-5,5-diphenylimidazolidin-4-one], the IC50 is reported as 32.2 nM.

`COc1ccc(CN2C(=N)NC(c3ccc(Cl)cc3)(c3ccc(Cl)cc3)C2=O)cc1C(=O)N1Cc2ccccc2C1` [Compound 388, 5,5-bis(4-chlorophenyl)-3-[3-(1,3-dihydro-2H-isoindol-2-ylcarbonyl)-4-methoxybenzyl]-2-iminoimidazolidin-4-one] showed an IC50 of 54.3 nM.

`N=C1NC(c2ccc(F)cc2)(c2ccc(F)cc2)C(=O)N1Cc1ccc(Cl)c(C(=O)N2CCC(F)(F)C2)c1` [Compound 389, 3-{4-chloro-3-[(3,3-difluoropyrrolidin-1-yl)carbonyl]benzyl}-5,5-bis(4-fluorophenyl)-2-iminoimidazolidin-4-one] showed an IC50 of 98.5 nM.
